Where “and” joins values, the source holds several entries; their conditions need not be identical. Equal entries are not always repeated. Where two headings read alike, the source gives them in different places.
Tests used:
Test in all cases: Broth microdilution MIC, Example 7 (NCL812 and analogues)
Pseudomonas aeruginosa = assay type: cell-based
VRE = assay type: cell-based, Enterococcus spp.; conditions: for activity against VRE among analogues: MIC testing, two VRE strains; for MIC: Enterococcus, VRE, 24 h
Experimental: (§1) Minimum inhibitory concentrations (μg/ml) were determined using the broth microdilution method recommended by the Clinical and Laboratory Standards Institute (CLSI). MIC breakpoints were determined by visual assessment and then confirmed using an ELISA plate reader, measuring absorbance levels at 600 nm. Bacterial growth (turbidity) in the wells with antimicrobial was compared with the amount of growth (turbidity) in the growth-control well (containing no antimicrobial). All isolates were tested in duplicate, if there was a difference of greater than one two-fold dilution in the results, the test was repeated a third time. The purity of the isolates was closely monitored during testing by subculturing the prepared bacterial inoculum onto SBA (sheep blood agar). […] The MIC50, MIC20 and MIC range (minimum and maximum) were calculated for each of the bacterial groups.
(§2) MICs were determined against two MRSA strains, two VRE strains and one strain each of E. coli and Pseudomonas aeruginosa.

MRSA = assay type: cell-based, Staphylococcus aureus; conditions: for activity against MRSA among analogues: MIC testing, two MRSA strains; for MIC: Staphylococcus aureus, MRSA
Experimental: as §1, §2

Escherichia coli = assay type: cell-based; conditions: 24 hours
[1] = P. aeruginosa, duplicate lines per compound
[2] = VRE 1, 24 hours, duplicate lines per compound
[3] = VRE 2, 24 hours, duplicate lines per compound
[4] = MRSA 1, 24 hours, duplicate lines per compound
[5] = MRSA 2, 24 hours, duplicate lines per compound
[6] = E. coli, duplicate lines per compound
[7] = isolate VRE 1, 24 hours, 1st and 2nd replicate rows
[8] = isolate VRE 2, 24 hours, 1st and 2nd replicate rows
[9] = isolate MRSA 1, 24 hours, 1st and 2nd replicate rows
[10] = isolate MRSA 2, 24 hours, 1st and 2nd replicate rows

Cl.N=C(NN=C(C(=O)O)c1ccccc1)NN=C(C(=O)O)c1ccccc1 [NCL 167]
>128 µg/mL: MIC (μg/ml) at 24 hours, P. aeruginosa (Pseudomonas aeruginosa; [1]) | MIC (μg/ml) at 24 hours, VRE 1 (VRE; [2]) | MIC (μg/ml) at 24 hours, VRE 2 (VRE; [3]) | MIC (μg/ml) at 24 hours, MRSA 1 (MRSA; [4]) | MIC (μg/ml) at 24 hours, MRSA 2 (MRSA; [5]) | MIC (μg/ml) at 24 hours, E. coli (Escherichia coli; [6])

N#Cc1cccc(/C=N/NC(=O)N/N=C/c2cccc(C#N)c2)c1 [NCL009]
>128 µg/mL: MIC (μg/ml) at 24 hours, P. aeruginosa (Pseudomonas aeruginosa; 1st and 2nd replicate rows) | MIC (μg/ml) at 24 hours, VRE 1 (VRE; [7]) | MIC (μg/ml) at 24 hours, VRE 2 (VRE; [8]) | MIC (μg/ml) at 24 hours, MRSA 1 (MRSA; [9]) | MIC (μg/ml) at 24 hours, MRSA 2 (MRSA; [10]) | MIC (μg/ml) at 24 hours, E. coli (Escherichia coli; 1st and 2nd replicate rows)

CC(=O)Nc1ccc(/C=N/Nc2cc(N/N=C/c3ccc(NC(C)=O)cc3)nc(N)n2)cc1 [NCL223]
>128 µg/mL: MIC (μg/ml) at 24 hours, P. aeruginosa (Pseudomonas aeruginosa; P. aeruginosa) | MIC (μg/ml) at 24 hours, VRE 1 (VRE; VRE 1, 24 hours) | MIC (μg/ml) at 24 hours, VRE 2 (VRE; VRE 2, 24 hours) | MIC (μg/ml) at 24 hours, MRSA 1 (MRSA; MRSA 1, 24 hours) | MIC (μg/ml) at 24 hours, MRSA 2 (MRSA; MRSA 2, 24 hours) | MIC (μg/ml) at 24 hours, E. coli (Escherichia coli; E. coli)

C/C(=N\Nc1nc(N)nc(N/N=C(\C)c2ccc(Cl)cc2)n1)c1ccc(Cl)cc1 [NCL208]
>128 µg/mL: MIC (μg/ml) at 24 hours, P. aeruginosa (Pseudomonas aeruginosa; P. aeruginosa) | MIC (μg/ml) at 24 hours, VRE 1 (VRE; VRE 1, 24 hours) | MIC (μg/ml) at 24 hours, VRE 2 (VRE; VRE 2, 24 hours) | MIC (μg/ml) at 24 hours, MRSA 1 (MRSA; MRSA 1, 24 hours) | MIC (μg/ml) at 24 hours, MRSA 2 (MRSA; MRSA 2, 24 hours) | MIC (μg/ml) at 24 hours, E. coli (Escherichia coli; E. coli)

C/C(=N\NC(=N)N/N=C/c1ccc(C(F)(F)F)cc1)c1ccc(Cl)cc1.Cl [NCL068]
>128 µg/mL: MIC (μg/ml) at 24 hours, P. aeruginosa (Pseudomonas aeruginosa; 1st and 2nd replicate rows) | MIC (μg/ml) at 24 hours, VRE 1 (VRE; [7]) | MIC (μg/ml) at 24 hours, VRE 2 (VRE; [8]) | MIC (μg/ml) at 24 hours, MRSA 1 (MRSA; [9]) | MIC (μg/ml) at 24 hours, MRSA 2 (MRSA; [10]) | MIC (μg/ml) at 24 hours, E. coli (Escherichia coli; 1st and 2nd replicate rows)

Cl.N=C(NN)NN=Cc1ccc(Cl)cc1 [NCL072]
greatest activity: activity against VRE among analogues (VRE) | activity against MRSA among analogues (MRSA)
64 µg/mL: MIC (μg/ml) at 24 hours, VRE 1 (VRE; [2]) | MIC (μg/ml) at 24 hours, VRE 2 (VRE; [3]) | MIC (μg/ml) at 24 hours, MRSA 2 (MRSA; [5])
>128 µg/mL: MIC (μg/ml) at 24 hours, P. aeruginosa (Pseudomonas aeruginosa; [1]) | MIC (μg/ml) at 24 hours, E. coli (Escherichia coli; [6])
32 µg/mL: MIC (μg/ml) at 24 hours, MRSA 1 (MRSA; [4])

NC(=O)N/N=C/c1ccc(Cl)cc1 [NCL014]
>128 µg/mL: MIC (μg/ml) at 24 hours, P. aeruginosa (Pseudomonas aeruginosa; 1st and 2nd replicate rows) | MIC (μg/ml) at 24 hours, VRE 1 (VRE; [7]) | MIC (μg/ml) at 24 hours, VRE 2 (VRE; [8]) | MIC (μg/ml) at 24 hours, MRSA 1 (MRSA; [9]) | MIC (μg/ml) at 24 hours, MRSA 2 (MRSA; [10]) | MIC (μg/ml) at 24 hours, E. coli (Escherichia coli; 1st and 2nd replicate rows)

NC(=O)N/N=C/c1cccc(C(F)(F)F)c1 [NCL067]
>128 µg/mL: MIC (μg/ml) at 24 hours, P. aeruginosa (Pseudomonas aeruginosa; 1st and 2nd replicate rows) | MIC (μg/ml) at 24 hours, VRE 1 (VRE; [7]) | MIC (μg/ml) at 24 hours, VRE 2 (VRE; [8]) | MIC (μg/ml) at 24 hours, MRSA 1 (MRSA; [9]) | MIC (μg/ml) at 24 hours, MRSA 2 (MRSA; [10]) | MIC (μg/ml) at 24 hours, E. coli (Escherichia coli; 1st and 2nd replicate rows)

Nc1nc(N/N=C/c2ccccc2)cc(N/N=C/c2ccccc2)n1 [NCL199]
2 µg/mL: MIC (MRSA; 24 h, read-out: MIC (μg/ml) at 24 hours MRSA 1, MRSA 1, 24 hours)
> 128 µg/mL: MIC (Pseudomonas aeruginosa; Pseudomonas aeruginosa, 24 h, read-out: MIC (μg/ml) at 24 hours P. aeruginosa, P. aeruginosa, 24 hours) | MIC (VRE; read-out: MIC (μg/ml) at 24 hours VRE 1, VRE 1, 24 hours) | MIC (VRE; read-out: MIC (μg/ml) at 24 hours VRE 2, VRE 2, 24 hours) | MIC (Escherichia coli; Escherichia coli, read-out: MIC (μg/ml) at 24 hours E. coli, E. coli)
3.5 µg/mL: MIC (MRSA; bioassay ranking, read-out: MRSA)
greatest activity: activity against MRSA among analogues (MRSA)
4 µg/mL: MIC (μg/ml) at 24 hours, MRSA 1 (MRSA; MRSA 1, 24 hours) | MIC (MRSA; 24 h, read-out: MIC (μg/ml) at 24 hours MRSA 2, MRSA 2, 24 hours)

Nc1nc(N/N=C/c2ccc(C(F)(F)F)cc2)nc(N/N=C/c2ccc(C(F)(F)F)cc2)n1 [NCL210]
>128 µg/mL: MIC (μg/ml) at 24 hours, P. aeruginosa (Pseudomonas aeruginosa; P. aeruginosa) | MIC (μg/ml) at 24 hours, MRSA 1 (MRSA; MRSA 1, 24 hours) | MIC (μg/ml) at 24 hours, MRSA 2 (MRSA; MRSA 2, 24 hours) | MIC (μg/ml) at 24 hours, E. coli (Escherichia coli; E. coli)
128 µg/mL: MIC (μg/ml) at 24 hours, VRE 1 (VRE; VRE 1, 24 hours)
greatest activity: activity against VRE among analogues (VRE)
32 µg/mL and 64 µg/mL: MIC (μg/ml) at 24 hours, VRE 2 (VRE; VRE 2, 24 hours)

Cl.N=C(N/N=C/c1cc(F)ccc1F)N/N=C/c1cc(F)ccc1F [NCL 118]
>128 µg/mL: MIC (μg/ml) at 24 hours, P. aeruginosa (Pseudomonas aeruginosa; [1]) | MIC (μg/ml) at 24 hours, VRE 1 (VRE; [2]) | MIC (μg/ml) at 24 hours, VRE 2 (VRE; [3]) | MIC (μg/ml) at 24 hours, MRSA 1 (MRSA; [4]) | MIC (μg/ml) at 24 hours, MRSA 2 (MRSA; [5]) | MIC (μg/ml) at 24 hours, E. coli (Escherichia coli; [6])

From patent US10253002B2, “Compounds and methods of treating infections” (Neoculi Pty Ltd., priority 2013, dated 2019)
